Results taken from PMC8873464, “Tuning the rate of aggregation of hIAPP into amyloid using small-molecule modulators of assembly” (Nature Communications, 2022).

Experiments:
Type in all cases: binding
[1] = biological target: T1, human islet amyloid polypeptide (wt hIAPP) (Homo sapiens, UniProt P10997); assay: Tyr37 fluorescence quenching titration; also SPR (Kd […]) and native ESI-MS/CID; known inhibitor used as control
T1 construct: gene IAPP; 37-residue synthetic peptide, amidated C-terminus, Cys-2/Cys-7 disulfide, monomeric
T1 sequence (P10997 34-70 limits assumed): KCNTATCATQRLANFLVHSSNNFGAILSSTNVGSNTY

[2] = biological target: T1, human islet amyloid polypeptide (wt hIAPP); assay: Tyr37 fluorescence quenching and native ESI-MS (weak adduct); ThT acceleration of aggregation; no SPR response, no significant NMR CSPs
[3] = biological target: T1, human islet amyloid polypeptide (wt hIAPP); assay: Tyr37 fluorescence quenching titration; also native ESI-MS, SPR (Kd […]), 2D NMR CSPs and ThT aggregation inhibition

**Q.** For `O=C(O[C@@H]1Cc2c(O)cc(O)cc2O[C@@H]1c1cc(O)c(O)c(O)c1)c1cc(O)c(O)c(O)c1` [EGCG], which Kd [1] is on record?
**A.** 13 µM

**Q.** How did the Kd [2] turn out when `O=C(Nc1ccccc1F)c1cnc(-c2ccccc2)nc1CCNC(=O)C1CCCCC1` [YX-A-1] was run?
**A.** ~280 µM

**Q.** `CC(=O)N[C@H]1C[C@@H](c2ccc(NC(=O)Cn3nnc4ccccc43)cc2)O[C@@H](C(C)C)C1` [YX-I-1] was tested. Which Kd [3] did it give?
**A.** 32 µM
